Laboratory results as given in US20060148732A1, “Inhibition of NF-kappaB by triterpene compositions” (priority 2000, published 2006).

Key:
human tumor cell lines = assay: Cytotoxicity / anti-tumor activity on panel of tumor cell lines; type: cell-based
Protocol: Each of the extracts was then screened against a panel of human tumor and non-tumor cells including human ovarian cancer cell lines, T-leukemic cells, human epidermoid cells, human breast cancer cells, human prostate cancer cells, human foreskin fibroblast cells, human endothelial cells, and human renal cancer cells. The cells were first plated in 96-well plates for 18-24 hours at 37° C. The cells were then exposed to varying concentrations of the plant extracts, and incubated for 72 hours at 37° C., and stained with either MTT (3-(4,5-dimethylethiazol-2-yl)-2,5-diphenyl tetrazolium bromide; Sigma Chemical Co.) for 4 hours or crystal violet (Sigma Chemical Co.) for 20 minutes at room temperature. The MTT plates received lysis buffer (20% sodium dodecyl sulfate in 50% DMF) and were incubated for an additional 6 hours before taking an OD reading at 570 nm. The crystal violet plates were washed, dye was extracted for 3-4 hours with Sorenson's buffer (0.1 M sodium citrate (pH 4.2), 50% v/v ethanol), and the plates were read at 570-600 nm (Mujoo et al., 1996). Cytotoxicity of the screened extracts was indicated by comparing the OD readings between the treated media alone and the cells treated with the plant extract. Percent cytotoxicity was calculated by 100-% of control, where % of control =[((OD of cells treated with plant extract (treated sample))/(OD of cells exposed to media alone (untreated sample)))×100].
The following human cancer cell lines were obtained from American Type Tissue Culture Collection (ATCC, Rockville, Md.). SK-OV-3 and OVCAR-3 (ovarian), Jurkat (T-cell leukemia), U-937 (histiocytic lymphoma), MDA-MB-468, MDA-MB-453, MDA-MB-435, SK-BP-3, MCF-7, MDA-MB-231, BT-20 (breast), LNCaP, PC-3, DU145 (prostate), 769-P, 786-O A498 (renal) and PANC-1 (pancreatic). HEY and Dov-13 (ovarian), cell lines were obtained from M. D. Anderson Cancer Center. The following non-transformed human cell lines MCF-10A and 10F (breast epithelium) were obtained from M. D. Anderson Cancer Center. Hs 27 (human foreskin fibroblasts) and L929 (mouse fibroblasts) were obtained from ATCC. […]

[1] = tested on: caspase-3 in Jurkat cells; assay: Assay for caspase-3 protease; type: cell-based, human; details: for start of caspase 3 activation: post treatment
Protocol: Caspase-3 activity was measured as described earlier (Enari et al., 1995) with some modifications. Briefly, Jurkat cells (1×10^6/ml) were treated with F035, D1 & G1 for different lengths of time. Cytosolic extracts were prepared by repeated freeze thawing in 300 μl of extraction buffer (12.5 mM Tris, pH 7.0, 1 mM DTT, 0.125 mM EDTA, 5% glycerol, 1 μM PMSF, 1 μg/ml leupeptin, 1 μg/ml pepstatin and 1 μg/ml aprotinin). Cell lystates were diluted 1:2 with ICE buffer (50 mM Tris, pH 7.0, 0.5 mM EDTA, 4 mM DTT and 20% glycerol) and incubated with 20 μM of a caspase 3 substrate (acetyl-Asp-Glu-Val-Asp-aminomethylcoumarin) at 37° C. Caspase-3 activity was monitored by the production of fluorescent aminomethylcoumarin, which was measured at excitation 355 nm, emission 460 nm using Fluoroscan II (Labsystems, Helsinki, Finland).
Assay for Caspase-3 Protease. Caspase-3 activity was measured as described earlier (Martin et al, 1995) with some modifications. Briefly, Jurkat cells (1×10^6) were treated with F094, avicin D, or avicin G (2 μg/ml) at 37° C. Cytosolic extracts were prepared by repeated freeze thawing of the cells in 300 μl of an extraction buffer (12.5 mM Tris, pH 7.0, 1 mM DTT, 0.125 mM EDTA, 5% glycerol, 1 μM PMSF, 1 μg/ml leupeptin, 1 μg/ml pepstatin, and 1 μg/ml aprotinin). Cell lysates were diluted 1:2 with an ICE buffer (50 mM Tris, pH 7.0, 0.5 mM EDTA, 4 mM DTT, and 20% glycerol) and incubated with 20 μM of a caspase-3 substrate (acetyl-Asp-Glu-Val-Asp-aminomethylcoumarin) (Calbiochem, La Jolla, Calif.) at 37° C. Caspase-3 activity was monitored by the production of flourescent aminomethylcoumarin that was measured at excitation 355 nm and emission 460 nm, using Fluoroscan II (Labsystems, Helsinki, Finland).

iNOS in RAW 264.7 cells = assay: LPS-induced iNOS expression (western blot); type: cell-based; details: RAW264.7; 2 μg/ml 16 h; LPS 100 ng/ml
Protocol: (§1) Induction and Measurement of iNOS and COX-2. RAW 264.7 cells (0.5×10^6/ml) were plated in 100 mm dishes and treated with F094 or monoterpene/triterpene glycosides (2 μg/ml) for 16 h. Next, the cells were exposed to 100 ng/ml of LPS for 24 h. Cells were lysed in a buffer containing 50 mM Tris, pH 7.4, 100 mM NaCl, 0.5% NP-40, 10 μg/ml leupeptin, 5 μg/ml aprotinin, and 100 μM PMSF. 70 μg of cellular protein were then loaded on a 7.5% SDS-polyacrylamide gel and electrotransferred onto a nitrocellulose membrane. Levels of iNOS and COX-2 were analyzed by Western blot analysis using rabbit anti-iNOS (Santa Cruz) and goat anti-COX-2 antibodies respectively.

COX-2 in RAW 264.7 cells = assay: LPS-induced COX-2 expression (western blot); type: cell-based; details: RAW264.7; 2 μg/ml 16 h; LPS 100 ng/ml
Protocol: as §1

| SMILES | IC50 compared with F035 (human tumor cell lines; 769-P, MDA-MB-453, MDA-MB-231) | potency compared with F035 (human tumor cell lines; C-2 (HEY Variant) and Jurkat cells) | start of caspase 3 activation [1] | cytotoxicity compared with F035 and D1 (human tumor cell lines; most of the cells tested (Jurkat, C-2, 769-P, MDA-MB-231, MDA-MB-453)) | time at which activation of caspase-3 is detectable ([1]; 2 μg/ml) | levels of LPS-induced iNOS (iNOS in RAW 264.7 cells) | levels of LPS-induced COX-2 (COX-2 in RAW 264.7 cells) |
| --- | --- | --- | --- | --- | --- | --- | --- |
| C=C[C@](C)(O)CC/C=C(\CO)C(=O)O[C@H]1[C@H](O)[C@@H](O)[C@H](O[C@@](C)(C=C)CC/C=C(\CO)C(=O)O[C@H]2C[C@]3(C(=O)O[C@@H]4O[C@H](CO)[C@@H](O)[C@H](O)[C@H]4O[C@@H]4O[C@@H](C)[C@H](O[C@@H]5O[C@@H](CO)[C@H](O)[C@H]5O)[C@@H](O[C@@H]5O[C@H](CO)[C@@H](O)[C@H](O)[C@H]5O)[C@H]4O)[C@H](O)C[C@]4(C)C(=CC[C@@H]5[C@@]6(C)CC[C@H](O[C@@H]7O[C@H](CO[C@@H]8O[C@H](C)[C@H](O)[C@H](O)[C@H]8O[C@@H]8OC[C@@H](O)[C@H](O)[C@H]8O)[C@@H](O)[C@H](O)[C@H]7NC(C)=O)C(C)(C)[C@@H]6CC[C@]54C)[C@@H]3CC2(C)C)O[C@@H]1C [Fraction D1] | comparable to F035 | twice as potent as F035 | 4 h |  |  |  |  |
| C=C[C@](C)(O)CC/C=C(\C)C(=O)O[C@H]1[C@H](O)[C@@H](O)[C@H](O[C@@](C)(C=C)CC/C=C(\CO)C(=O)O[C@H]2C[C@]3(C(=O)O[C@@H]4O[C@H](CO)[C@@H](O)[C@H](O)[C@H]4O[C@@H]4O[C@@H](C)[C@H](O[C@@H]5O[C@@H](CO)[C@H](O)[C@H]5O)[C@@H](O[C@@H]5O[C@H](CO)[C@@H](O)[C@H](O)[C@H]5O)[C@H]4O)[C@H](O)C[C@]4(C)C(=CC[C@@H]5[C@@]6(C)CC[C@H](O[C@@H]7O[C@H](CO[C@@H]8O[C@H](C)[C@H](O)[C@H](O)[C@H]8O[C@@H]8OC[C@@H](O)[C@H](O)[C@H]8O)[C@@H](O)[C@H](O)[C@H]7NC(C)=O)C(C)(C)[C@@H]6CC[C@]54C)[C@@H]3CC2(C)C)O[C@@H]1C [Fraction G1] |  |  | 4 h | significantly more cytotoxic than F035 and D1 | 2 to 4 h | decreases the levels of LPS-induced iNOS and COX-2 sharply | decreases the levels of LPS-induced iNOS and COX-2 sharply |
